Measured values published in PubChem BioAssay (NCI).
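Values below derive from 48-hour exposures of cells grown in 96-well plates, with endpoints linearly interpolated between the two concentrations bracketing the appropriate inhibition level. GI50: concentration for 50% inhibition of growth. The concentration for full growth arrest is given as TGI.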

Legend:
Test in all cases: NCI tumour cell line growth inhibition, 48 h
[1] = test system: SK-OV-3 ovarian
[2] = test system: TK-10 renal
[3] = test system: KM12 colon
[4] = test system: SF-268 CNS
[5] = test system: UACC-62 melanoma
[6] = test system: UO-31 renal
[7] = test system: NCI-H23 lung
[8] = test system: SK-MEL-5 melanoma
[9] = test system: OVCAR-4 ovarian
[10] = test system: SK-MEL-28 melanoma

Row | SMILES | TGI [1] | TGI [2] | TGI [3] | TGI [4] | TGI [5] | TGI [6] | TGI [7] | TGI [8] | TGI [9] | TGI [10] | GI50 [1] | GI50 [2] | GI50 [3] | GI50 [4] | GI50 [5] | GI50 [6] | GI50 [7] | GI50 [8] | GI50 [9] | GI50 [10]
1 | C/C(=N\N)C(CN1CCOCC1)C(c1ccccc1)c1c(O)c2ccccc2oc1=O (stereo not drawn) | > 100 µM | > 100 µM | > 100 µM | > 100 µM | > 100 µM | > 100 µM | > 100 µM | > 100 µM | > 100 µM | > 100 µM |  |  |  |  |  |  |  |  |  | 
2 | O=C1CC=C2C3CC4N(CCC45c4ccccc4N1C25)C/C3=C\CO (stereo not drawn) | > 100 µM | > 100 µM | > 100 µM | > 100 µM | > 100 µM | > 100 µM | > 100 µM | > 100 µM | > 100 µM | > 100 µM |  |  |  |  |  |  |  |  |  | 
3 | O=c1cc(-c2ccccc2)oc2c(O)c(O)ccc12 | > 100 µM | 71.1 µM | > 100 µM | > 100 µM | 66.4 µM | 29 µM | > 100 µM | 45.2 µM | > 100 µM | > 100 µM | 23.8 µM | 7.5 µM | 10.3 µM | 6.4 µM | 13.8 µM | 3.02 µM | 6.27 µM | 12.5 µM | 3.73 µM | 11.4 µM
4 | N[C@@H](Cc1c[nH]c2ccccc12)C(=O)NC1CCN(Cc2c[nH]c3ccc(Cl)cc23)CC1 | 28.1 µM | 27.2 µM | 16.9 µM | 22 µM | 18.3 µM | 26.4 µM | 30.7 µM | 25.9 µM | 22 µM | 4.48 µM | 14.6 µM | 13.4 µM | 4.6 µM | 7.74 µM | 5.56 µM | 13 µM | 15.3 µM | 13.1 µM | 8.14 µM | 1.99 µM
5 | COc1ccc2c(c1)/C(=C\c1c(-c3ccccc3)nc3sccn13)C(=O)N2 | > 65.8 µM | > 72.9 µM |  | 13.4 µM | 15.6 µM | > 43.7 µM | 6.85 µM | 21.3 µM | > 96.8 µM | 21.9 µM |  | > 23.4 µM | 1.55 µM | 2.11 µM | 3.52 µM | 7.29 µM | 1.97 µM | 6.06 µM | 15.6 µM | 2.61 µM
6 | C=C(C)[C@@H]1C/C=C(/COC(C)=O)CC[C@H]2O[C@@]2(C)CC/C=C(\C)CC1 | > 100 µM | > 100 µM | > 100 µM | > 100 µM | > 100 µM | > 100 µM | > 100 µM | > 100 µM | > 100 µM | > 100 µM | > 100 µM | > 100 µM | > 100 µM | > 100 µM | > 100 µM | 30.4 µM | > 100 µM | > 100 µM | > 100 µM | > 100 µM
7 | CC(=O)O[C@H]1CC[C@@]2(C)C(=CC[C@H]3C(CC#N)[C@@](C)(C#N)CCC32)C1 (stereo partly drawn) | > 100 µM | > 100 µM | > 100 µM | > 100 µM | > 100 µM | > 100 µM | > 100 µM | > 100 µM | > 100 µM | > 100 µM |  |  |  |  |  |  |  |  |  | 
8 | COc1ccc2c(c1)c1ccc3c(c1n2C)C(=O)C=CC3=O | 41.3 µM | 17.4 µM | 35.8 µM | 31.8 µM | 29.3 µM | 24.5 µM | 32.2 µM | 43.6 µM | 15.6 µM | 22.5 µM |  |  |  |  |  |  |  |  |  | 
